Experimental data from patent US20210179577A1, “AROMATIC SULFONAMIDE DERIVATIVES FOR THE TREATMENT OF ISCHEMIC STROKE” (Bayer Aktiengesellschaft, priority 2017, published 2021).

Target: T1, mouse P2X4 (Mus musculus, UniProt Q9JJX6)
T1 construct: expressed in transfected cells; host or cells: 1321N1 astrocytoma cells
T1 sequence (Q9JJX6 1-388): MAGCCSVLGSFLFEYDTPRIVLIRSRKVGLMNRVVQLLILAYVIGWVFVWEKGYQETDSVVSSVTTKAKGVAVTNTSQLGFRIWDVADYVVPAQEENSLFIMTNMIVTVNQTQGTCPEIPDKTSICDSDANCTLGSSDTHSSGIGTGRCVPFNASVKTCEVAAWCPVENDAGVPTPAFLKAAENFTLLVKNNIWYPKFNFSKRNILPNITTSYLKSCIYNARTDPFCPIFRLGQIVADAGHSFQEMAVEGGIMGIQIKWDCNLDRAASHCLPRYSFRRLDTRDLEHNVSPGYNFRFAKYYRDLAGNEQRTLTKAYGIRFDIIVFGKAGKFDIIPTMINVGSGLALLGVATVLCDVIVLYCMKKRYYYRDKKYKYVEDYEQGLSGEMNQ
Experiment: FLIPR assay, mouse P2X4 1321N1 Astrocytoma Cells
Type: cell-based
Conditions: agonist Mg-ATP at EC80
Procedure: 1321N1 Astrocytoma cells stably expressing human P2X4 or rat P2X4 or mouse P2X4 were plated in Collagen ITO-treated microplate at a seeding density of 10000 cells/well and incubated overnight. P2X4 function was assessed by measuring intracellular calcium changes using the calcium-chelating dye Fluo8-AM (Molecular Devices) on a fluorescent imaging plate reader (FLEX/FLIPR station; Molecular Devices). On the day of the assay, the medium was removed and the cells were incubated for 30 min at […] and 5% CO2 in 30 μL of dye buffer (Hank's balanced salt solution, 10 mM HEPES, 1.8 mM CaCl2, 1 mM MgCl2, 2 mM probenecid, 5 mM D-glucose monohydrate, 5 μM Fluo8-AM, pH=7.4). Compounds diluted in probenecid buffer (Hank's balanced salt solution, 10 mM HEPES, 1.8 mM CaCl2, 1 mM MgCl2, 2 mM probenecid, 5 mM D-glucose monohydrate, pH=7.4) were added in a volume of 10 μL and allowed to incubate for 30 min at room temperature. The final assay DMSO concentration was 0.25%. The agonist, Mg-ATP (Sigma), was added in a volume of 10 μL at a concentration representing the EC80 value. EC80 was determined to be 0.5 μM for human and mouse P2X4 and 5 μM for rat P2X4. The fluorescence was measured for an interval of 120 sec at 2 sec intervals. The excitation and emission wavelengths used to monitor fluorescence were 470-495 nm and 515-575 nm, respectively. The data was analyzed based on the increase in peak relative fluorescence units (RFU) compared to the basal fluorescence and the data was normalized to the agonist control. The compounds were tested in triplicates per plate and mean values were plotted in Excel XLFit to determine IC50 values, percentage of maximal inhibition and the Hill coefficients.

IC50 [µM] | Mouse P2X4 1321N1 Astrocytoma Cells (FLIPR Assay) avg Efficacy [%] | SMILES
0.043 | 69 | NS(=O)(=O)c1cc(NC(=O)Cc2ccccc2Cl)ccc1-n1cc(C(F)(F)F)cn1 [Example 19, 2-(2-Chlorophenyl)-N-{3-sulfamoyl-4-[4-(trifluoromethyl)-1H-pyrazol-1-yl]phenyl}acetamide]
0.037 | 87 | N#Cc1cnn(-c2ccc(NC(=O)Cc3ccccc3Cl)cc2S(N)(=O)=O)c1 [Example 39, 2-(2-Chlorophenyl)-N-[4-(4-cyano-1H-pyrazol-1-yl)-3-sulfamoylphenyl]acetamide]
0.026 | 87 | NS(=O)(=O)c1cc(NC(=O)Cc2ccccc2Cl)ccc1-c1cnn(C(F)F)c1 [Example 326, 2-(2-Chlorophenyl)-N-{4-[1-(difluoromethyl)-1H-pyrazol-4-yl]-3-sulfamoylphenyl}acetamide]
